Test results from paper PMC9695642, “Conservation of Importin α Function in Apicomplexans: Ivermectin and GW5074 Target Plasmodium falciparum Importin α and Inhibit Parasite Growth in Culture” (International Journal of Molecular Sciences, 2022).
Where two headings read alike, the source gives them in different places.

Test system: P. falciparum 3D7 strain
Experiment: P. falciparum growth inhibition, HRP2-based sandwich ELISA
Type: cell-based, Plasmodium falciparum
Settings: Plasmodium falciparum
Source text: To test the potential antimalarial action of GW5074, we compared the activity of GW5074 to ivermectin against the asexual stages of P. falciparum parasites, using an established HRP2-based (histidine-rich protein 2) ELISA [38, 39, 40]. The assay uses a sandwich ELISA to measure HRP2 levels as an indicator of parasite growth; the clinically prescribed drug dihydroartemisinin (DHA) was used as a positive control.
Figure 6 Ivermectin and GW5074 inhibit P. falciparum parasites in culture at low µM concentrations. P. falciparum cultures (0.25% parasitemia) were treated with increasing concentrations of the indicated compounds for 72 h, after which the HRP2-based sandwich ELISA was used to measure the HRP2 levels, determined by optical density. The results shown are from a single typical experiment performed in duplicate (SD shown), representative of a series of three independent experiments (see Table 5 for pooled data).
P. falciparum 3D7 strain was cultured and maintained in human red blood cells (RBCs) using RPMI (Roswell Park Memorial Institute) 1640 medium supplemented with 0.5% Albumax (GibcoTM, Waltham, MA, USA), 50 mg/L hypoxanthine (Sigma-Aldrich, St. Louis, MO, USA), 2 g/L D-glucose (Sigma-Aldrich, St. Louis, MO, USA), 2 g/L sodium bicarbonate (Sigma-Aldrich, St. Louis, MO, USA), and 56 mg/L of gentamicin (Abbott, Chicago, IL, USA) at 37 °C in 5% CO2 in a humidified incubator, according to the standard procedures. Cultures presynchronised using 5% D-sorbitol (Sigma-Aldrich, St. Louis, MO, USA) to obtain predominantly the ring stage of the P. falciparum life cycle were used for the growth assays, as previously. DHA (a gift from IPCA Laboratories, Mumbai, India) was used as a control. Growth assays in the absence and presence of inhibitors were performed using the HRP2 sandwich horseradish peroxidase-linked immunosorbent assay that measures HRP2 levels as an indicator of growth.

IC50 (3D7, 72 h, 72 h, single typical experiment in duplicate, read-out: IC50, P. falciparum growth (Figure 6)): 0.7 nM
IC50 (3D7, 72 h, asexual stages, 72 h, pooled mean ± SD (n = 3), read-out: IC50, inhibition of growth of P. falciparum parasites in culture): 1 ± 0.5 nM
IC50 (3D7, asexual stages, approximate value, read-out: IC50, P. falciparum growth): ~1 nM
Structure (SMILES): C[C@H]1[C@@H](O)O[C@@H]2O[C@@]3(C)CC[C@H]4[C@H](C)CC[C@@H]1[C@@]24OO3 [DHA, dihydroartemisinin]
